This is an account of results in PubChem BioAssay AID652229 (The Scripps Research Institute Molecular Screening Center, 2013).

This test concerns the target Serine/threonine-protein phosphatase 5 (Homo sapiens) (UniProt P53041). Description: inhibitors of PP5 catalytic domain activity – biochemical, radiolabel, 33P-phosphohistone substrate, powder samples, selectivity assay for PP1 inhibitor project, late-stage follow-up (AID 652229). The note with it: purified PP5c, 33P-phosphohistone dephosphorylation, scintillation; at 50 µM; stronger effect = higher value.

Each structure is given as a SMILES string. Activity calls are given as the source filed them.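 How the source made its calls: active means phosphatase PP5 activity blocked by at least 30% at 50 µM; inactive means the rest.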

Serine/threonine-protein phosphatase 5 (Homo sapiens), sequence (P53041 whole entry, looked up, the tested form may be a part): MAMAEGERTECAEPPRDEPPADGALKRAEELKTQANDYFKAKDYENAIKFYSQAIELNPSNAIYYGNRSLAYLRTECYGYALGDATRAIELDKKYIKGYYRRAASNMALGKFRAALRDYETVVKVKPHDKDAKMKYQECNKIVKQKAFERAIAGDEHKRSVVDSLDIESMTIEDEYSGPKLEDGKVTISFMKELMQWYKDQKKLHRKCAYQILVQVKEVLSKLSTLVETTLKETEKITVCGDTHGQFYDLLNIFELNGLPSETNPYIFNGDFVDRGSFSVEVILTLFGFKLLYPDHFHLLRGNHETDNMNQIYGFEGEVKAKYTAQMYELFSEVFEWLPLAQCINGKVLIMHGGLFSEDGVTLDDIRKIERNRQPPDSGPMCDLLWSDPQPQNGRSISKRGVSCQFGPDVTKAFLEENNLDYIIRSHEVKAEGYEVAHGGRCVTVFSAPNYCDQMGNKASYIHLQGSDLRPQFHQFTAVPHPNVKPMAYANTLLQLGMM

In general, inhibition refers to the change of the read-out against control, counted positive when it falls. For `CC1CCN(C(c2ccccn2)c2cc(Cl)c3cccnc3c2O)CC1` (configuration not stated), the inhibition is 6.08% (inactive). As for `CCN1CCN(C(c2ccccn2)c2cc(Cl)c3cccnc3c2O)CC1` (configuration not stated), the figure is 3.21% (inactive); as for `Oc1c(C(c2ccccn2)N2CCNCC2)cc(Cl)c2cccnc12` (configuration not stated), 6.84% (inactive). For `Oc1c(C(c2ccccn2)N2CCC(Cc3ccccc3)CC2)cc(Cl)c2cccnc12` (configuration not stated), the inhibition was 4.23% (inactive). The figure for `Oc1c(C(c2ccccn2)N2CCN(c3ccccc3F)CC2)cc(Cl)c2cccnc12` (configuration not stated) is -0.6% (inactive); for `CN1CCN(C(c2ccccn2)c2cc(Cl)c3cccnc3c2O)CC1` (configuration not stated) it is 3.05% (inactive). As to `CC(C)(C)OC(=O)N1CCN(C(c2ccccn2)c2cc(Cl)c3cccnc3c2O)CC1` (configuration not stated), the inhibition was 0.25% (inactive).
